Series [1] deals with L1210 leukemia. The settings on record: earlier work, cited from earlier work.
Series [2] is described as follows: Rm from reversed phase partition chromatography (lipophilic-hydrophilic balance).
From the text: (§1) Rm=a measure of the compound's lipophilic-hydrophilic balance from reversed phase partition chromatography. Rm is linearly related to partition coefficients obtained in the 1-octanol/water system.
Series [3] relates to P388 Leukemia. As to the kind of experiment: P388 leukemia in vivo (increase in lifespan). The conditions noted are these: at OD; i.p. tumour, days 1, 5 and 9; >20% statistically significant.
Series [4] has as its system Lewis lung carcinoma. As to the kind of experiment: Lewis lung carcinoma in vivo (increase in lifespan). The conditions noted are these: for ILS (percentage increase in lifespan), Lewis lung: i.v. tumour, days 1, 5 and 9, >40% statistically significant. The text has this: LL. is the Lewis lung carcinoma.
The nature of series [5]: physchem. The conditions noted are these: reversed phase partition chromatography.
From the text: as §1

The values below come from US4603125A, “Substituted o-phenylenediamine acridine compounds having antitumor activity” (Development Finance Corporation of New Zealand, priority 1982, dated 1986).

“Also recorded” adds a separate entry of the source.

With `CS(=O)(=O)Nc1ccc(Nc2c3ccccc3nc3ccccc23)cc1` [AMSA, 4'-(9-acridinylamino) methanesulphonanilide], the “antitumour activity on L1210 leukemia” value in series [1] is “good antitumour activity”.
For orientation: chromatographic logP means lipophilicity estimated from chromatographic retention. Low values mean a more hydrophilic compound, high ones a more lipophilic compound. In the case of `CNc1cc(NS(C)(=O)=O)ccc1Nc1c2ccccc2nc2cc(C)ccc12` [Compound 3], the chromatographic logP in series [2] is 0.39. Further, the “ILSmax (percentage increase in lifespan), P388” value in series [3] is listed as 83%.
The compound `CNc1cc(NS(C)(=O)=O)ccc1Nc1c2ccccc2nc2cc(OC)ccc12` [Compound 4] showed a chromatographic logP in series [2] of 0.21. Besides, the “ILSmax (percentage increase in lifespan), P388” value in series [3] is given as 140%.
For the compound `CNc1cc(NS(C)(=O)=O)ccc1Nc1c2ccccc2nc2cc(F)ccc12` [Compound 5], in series [2], the chromatographic logP was determined as 0.28.
In turn, `CNc1cc(NS(C)(=O)=O)ccc1Nc1c2ccccc2nc2cc(Cl)ccc12` [Compound 6] registered a chromatographic logP in series [2] of 0.36.
The compound `CNc1cc(NS(C)(=O)=O)ccc1Nc1c2ccccc2nc2cc(Br)ccc12` [Compound 7] showed a chromatographic logP in series [2] of 0.34. Further, the “ILSmax (percentage increase in lifespan), P388” value in series [3] stood at 94%.
Consider `CNc1cc(NS(C)(=O)=O)ccc1Nc1c2ccccc2nc2cc(I)ccc12` [Compound 8], for which the chromatographic logP in series [2] amounted to 0.35. Also, the “ILSmax (percentage increase in lifespan), P388” value in series [3] worked out at 80%.
For `CNc1cc(NS(C)(=O)=O)ccc1Nc1c2ccccc2nc2cc([N+](=O)[O-])ccc12` [Compound 9], the chromatographic logP in series [2] came out at 0.04. Further, the “ILSmax (percentage increase in lifespan), P388” value in series [3] was 70%.
On to `CNc1ccc2c(Nc3ccc(NS(C)(=O)=O)cc3NC)c3ccccc3nc2c1` [Compound 10], for which, in series [2], the chromatographic logP was 0.18.
On the same count and under the same terms, the value for `CNc1cc(NS(C)(=O)=O)ccc1Nc1c2ccccc2nc2cc(NC(=O)OC)ccc12` [Compound 11] was 0.13.
The same measure, in the same setting: the value for `CNc1cc(NS(C)(=O)=O)ccc1Nc1c2ccccc2nc2c(C)cccc12` [Compound 12] was 0.19.
The same measure, in the same setting: the value for `CNc1cc(NS(C)(=O)=O)ccc1Nc1c2ccccc2nc2c(OC)cccc12` [Compound 13] was 0.12.
Compound `CNC(=O)c1cccc2c(Nc3ccc(NS(C)(=O)=O)cc3NC)c3ccccc3nc12` [Compound 15] registered a chromatographic logP in series [2] of 0.07. In series [3], the “ILSmax (percentage increase in lifespan), P388” value was found to be 82%.
`CNc1cc(NS(C)(=O)=O)ccc1Nc1c2ccc(C)cc2nc2c(C)cccc12` [Compound 16]: the chromatographic logP in series [2] turned out to be 0.38. The “ILSmax (percentage increase in lifespan), P388” value in series [3] came out at 92%.
`CNc1cc(NS(C)(=O)=O)ccc1Nc1c2ccc(OC)cc2nc2c(C)cccc12` [Compound 17] gave a chromatographic logP in series [2] of 0.31.
On to `CNc1cc(NS(C)(=O)=O)ccc1Nc1c2ccc(F)cc2nc2c(C)cccc12` [Compound 18], for which the chromatographic logP in series [2] stood at 0.31.
In series [2], `CNc1cc(NS(C)(=O)=O)ccc1Nc1c2ccc(Cl)cc2nc2c(C)cccc12` [Compound 19] showed a chromatographic logP of 0.4.
Still for that read-out and setting: then `CNc1cc(NS(C)(=O)=O)ccc1Nc1c2ccc(Br)cc2nc2c(C)cccc12` [Compound 21], with 0.38; and `CNc1cc(NS(C)(=O)=O)ccc1Nc1c2ccc(C)cc2nc2c(OC)cccc12` [Compound 22], with 0.33.
`CNC(=O)c1cccc2c(Nc3ccc(NS(C)(=O)=O)cc3NC)c3ccc(Cl)cc3nc12` [Compound 23]: the chromatographic logP in series [2] was determined as 0.23. Besides, in series [3], the “ILSmax (percentage increase in lifespan), P388” value turned out to be 59%.
Turning to `CNC(=O)c1cccc2c(Nc3ccc(NS(C)(=O)=O)cc3NC)c3cccc(C)c3nc12` [Compound 24], the chromatographic logP in series [2] turned out to be 0.23. Further, the “ILSmax (percentage increase in lifespan), P388” value in series [3] stood at 94%.
Take `CNc1cc(NS(C)(=O)=O)ccc1Nc1c2cccc(C)c2nc2c(C)cccc12` [Compound 25]: the chromatographic logP in series [2] was found to be 0.16.
With `CNc1cc(NS(C)(=O)=O)ccc1Nc1c2cccc(OC)c2nc2c(OC)cccc12` [Compound 26], the “ILSmax (percentage increase in lifespan), P388” value in series [3] stood at 84%.
For the compound `CS(=O)(=O)Nc1ccc(Nc2c3ccccc3nc3ccccc23)c(NCCO)c1` [Compound 27], in series [2], the chromatographic logP is 0.07. For the same compound, the “ILSmax (percentage increase in lifespan), P388” value in series [3] is 89%.
Compound `CS(=O)(=O)Nc1ccc(Nc2c3ccccc3nc3cc(Br)ccc23)c(NCCO)c1` [Compound 28] registered a chromatographic logP in series [2] of 0.11.
On the same count and under the same terms, the value for `Cc1cccc2c(Nc3ccc(NS(C)(=O)=O)cc3NCCO)c3ccccc3nc12` [Compound 29] was 0.02.
`CS(=O)(=O)Nc1ccc(Nc2c3ccccc3nc3ccccc23)c(NCC(O)CO)c1` (stereo not drawn) [Compound 30] showed a chromatographic logP in series [2] of 0.3. In series [3], the “ILSmax (percentage increase in lifespan), P388” value turned out to be 84%.
On the same counts, the results for `Cc1cccc2c(Nc3ccc(NS(C)(=O)=O)cc3NCC(O)CO)c3ccccc3nc12` (stereo not drawn) [Compound 31] are 0.21 and 83%.
Take `CN(C)c1cc(NS(C)(=O)=O)ccc1Nc1c2ccccc2nc2ccccc12` [Compound 32]: in series [4] (at OD), the “cures, Lewis lung” value is recorded as “all cured” and the “ILS (percentage increase in lifespan), Lewis lung” value is reported as > 250%. In addition, the chromatographic logP in series [2] was determined as 0.41. Besides, the “ILSmax (percentage increase in lifespan), P388” value in series [3] was found to be 212%.
Turning to `Cc1cccc2c(Nc3ccc(NS(C)(=O)=O)cc3N(C)C)c3ccccc3nc12` [Compound 34], the chromatographic logP in series [5] was 0.36.
For the compound `COc1ccc2c(Nc3ccc(NS(C)(=O)=O)cc3N(C)C)c3cccc(C)c3nc2c1` [Compound 41], in series [5], the chromatographic logP was 0.44.
Same read-out and setting: the value for `CNC(=O)c1cccc2c(Nc3ccc(NS(C)(=O)=O)cc3N(C)C)c3cccc(C)c3nc12` [Compound 44] was 0.4.
As to `CN(CCO)c1cc(NS(C)(=O)=O)ccc1Nc1c2ccccc2nc2ccccc12` [Compound 45], the chromatographic logP in series [2] was determined as 0.1. For the same compound, the “ILSmax (percentage increase in lifespan), P388” value in series [3] was 100%.
Regarding `CNc1cc(NP(=O)(OC)OC)ccc1Nc1c2ccccc2nc2ccccc12` [Compound 47], the chromatographic logP in series [2] turned out to be 0.32. Further, the “ILSmax (percentage increase in lifespan), P388” value in series [3] is given as 118%.
As for `CNc1cc(NP(=O)(OC)OC)ccc1Nc1c2ccccc2nc2cc(Br)ccc12` [Compound 48], in series [2], the chromatographic logP worked out at 0.62. Also, the “ILSmax (percentage increase in lifespan), P388” value in series [3] worked out at 77%.
`CNc1cc(NP(=O)(OC)OC)ccc1Nc1c2ccccc2nc2c(C)cccc12` [Compound 49] gave a chromatographic logP in series [2] of 0.47. Further, in series [3], the “ILSmax (percentage increase in lifespan), P388” value is on record as 91%.
As to `CNc1cc(NC(=O)OC)ccc1Nc1c2ccccc2nc2ccccc12` [Compound 50], the chromatographic logP in series [2] came out at 0.51.
On the same count and under the same terms, then `COC(=O)Nc1ccc(Nc2c3ccccc3nc3ccccc23)c(NCCO)c1` [Compound 51], with 0.39.
As to `CNc1cc(NC(=O)OC)ccc1Nc1c2ccccc2nc2cc(C)ccc12` [Compound 52], the chromatographic logP in series [2] worked out at 0.78. Also, the “ILSmax (percentage increase in lifespan), P388” value in series [3] came out at 86%.
`CNc1cc(NC(=O)OC)ccc1Nc1c2ccccc2nc2cc(F)ccc12` [Compound 53] displayed a chromatographic logP in series [2] of 0.63. The “ILSmax (percentage increase in lifespan), P388” value in series [3] is recorded as 110%.
`CNc1cc(NC(=O)OC)ccc1Nc1c2ccccc2nc2cc(Cl)ccc12` [Compound 54] returned a chromatographic logP in series [2] of 0.73.
For `CNc1cc(NC(=O)OC)ccc1Nc1c2ccccc2nc2cc(Br)ccc12` [Compound 55], the chromatographic logP in series [2] turned out to be 0.7.
Consider `CNc1cc(NC(=O)OC)ccc1Nc1c2ccc(Cl)cc2nc2c(C)cccc12` [Compound 56], for which the “ILS (percentage increase in lifespan), Lewis lung” value in series [4] (at OD) amounted to 100%. The compound also yielded a chromatographic logP in series [2] of 0.67.
For `CNc1cc(NC(=O)OC)ccc1Nc1c2ccc(Br)cc2nc2c(C)cccc12` [Compound 57], in series [4] (at OD), the “ILS (percentage increase in lifespan), Lewis lung” value worked out at 82%. Also, the chromatographic logP in series [2] is 0.69. Moreover, the “ILSmax (percentage increase in lifespan), P388” value in series [3] came out at 97%.
For the compound `CNc1cc(NC(=O)OC)ccc1Nc1c2ccccc2nc2c(C)cccc12` [Compound 58], in series [4] (at OD), the “ILS (percentage increase in lifespan), Lewis lung” value was determined as 48%. The chromatographic logP in series [2] was found to be 0.56.
For `COC(=O)Nc1ccc(Nc2c3ccccc3nc3ccccc23)c(N(C)C)c1` [Compound 59], the chromatographic logP in series [2] stood at 0.56. The “ILSmax (percentage increase in lifespan), P388” value in series [3] turned out to be 51%.
On to `CNc1cc(NS(=O)(=O)c2ccccc2)ccc1Nc1c2ccccc2nc2ccccc12` [Compound 60], for which the chromatographic logP in series [2] turned out to be 0.55.
Turning to `O=S(=O)(Nc1ccc(Nc2c3ccccc3nc3ccccc23)c(NCCO)c1)c1ccccc1` [Compound 61], the chromatographic logP in series [2] was 0.35. Further, the “ILSmax (percentage increase in lifespan), P388” value in series [3] came out at 81%.
`CNc1cc(NS(=O)(=O)c2ccc(N)cc2)ccc1Nc1c2ccccc2nc2ccccc12` [Compound 62] returned a chromatographic logP in series [2] of 0.03.
Regarding `CNc1cc(NS(=O)(=O)c2ccc(N)cc2)ccc1Nc1c2ccccc2nc2cc(Br)ccc12` [Compound 63], in series [2], the chromatographic logP was found to be 0.29.
`CNc1cc(NS(=O)(=O)c2ccc(N)cc2)ccc1Nc1c2ccccc2nc2c(C)cccc12` [Compound 64] gave a chromatographic logP in series [2] of 0.13.
In the case of `Nc1ccc(S(=O)(=O)Nc2ccc(Nc3c4ccccc4nc4ccccc34)c(NCCO)c2)cc1` [Compound 65], in series [2], the chromatographic logP was 0.18. Moreover, in series [3], the “ILSmax (percentage increase in lifespan), P388” value was 50%.
In series [2], `CNc1cc(NC(=O)Oc2ccccc2)ccc1Nc1c2ccccc2nc2ccccc12` [Compound 66] yielded a chromatographic logP of 0.76. Besides, in series [3], the “ILSmax (percentage increase in lifespan), P388” value was 71%.
For the compound `COc1cc(NS(C)(=O)=O)ccc1Nc1c2ccccc2nc2ccccc12` [m-AMSA, 4'-(9-acridinylamino)methanesulphon-m-anisidide, reference compound], the “ILS (percentage increase in lifespan), Lewis lung” value in series [4] (at OD) amounted to 38%. In series [4] (at the stated dose (OD)), the “active, Lewis lung” value is “Y/N”. Also, the “Lewis lung activity in words” value in series [4] (tumour implanted intravenously) is “minimal activity; also recorded: strictly inactive”. For the same compound, in series [1] (vs AMSA), the “dose potency of 3'-methoxy derivative” value is on record as “increased dose potency”. The “ILSmax (percentage increase in lifespan), P388” value in series [3] is on record as 78%.
